Data reported in US20260083674A1, “OXAZOLIDINONE LIPOSOME COMPOSITIONS” (priority 2021, published 2026).

Experiments:
[1] = male, Sprague-Dawley, rat, in vivo, po, 50 mg/kg
Method: For plasma drug measurements, 0.5 ml blood was collected in lithium heparin tubes at 5 min, 15 min, 1 h, 3 h, 6 h, 24 h, 48 h, and 72 h. The samples were centrifuged and the resultant plasma was separated and transferred to duplicate clear polypropylene tubes, frozen immediately over dry ice, and stored at −80° C. until analysis. The plasma concentration in rats was determined by HPLC. Non-compartment PK analyses were performed using Phoenix WinNonlin (Version 7.0).

M. tuberculosis Erdman = details: eight weeks, Balb/c and C3HeB/FeJ mice; cited from earlier work

In the case of `CC(=O)NC[C@H]1CN(c2ccc(N3CCOCC3)c(F)c2)C(=O)O1` [Linezolid], the AUC0-last/Dose [1] is given as 5.64 [hr*μg/mL]/[mg/kg] and the “log 10 CFU counts, linezolid monotherapy (Lanoix et al.)” value (M. tuberculosis Erdman) is given as 4-6 log 10 CFU.
